From patent US10604489B2, “Compounds for the treatment of pain” (priority 2018, dated 2020)
Counter-ions that a name gives are not always drawn. Like-named read-outs stand apart in the source and are kept apart here.

Columns and labels:
Male Sprague-Dawley rats = test: animal or person; assay type: in vivo, rat
human μ opioid receptor [1] = biological target: T1, human μ opioid receptor (Homo sapiens (Human), UniProt P35372); test: Functional activity ([35S]GTPγS binding); assay type: biochemical; details: [35S]GTPγS 0.080 nM, CHO cell membranes, 60 min at 30° C., filtration
Procedure, shortened: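 Membranes from stably transfected CHO cells (7.5 μg) incubated with 12 test-compound concentrations and 0.080 nM [35S]GTPγS in 50 mM Tris-HCl pH 7.4, 3 mM MgCl2, 0.2 mM EGTA, 3 μM GDP, 100 mM NaCl, 60 min at 30° C. Nonspecific binding defined with 10 μM GTPγS; bound label collected by filtration and scintillation counting.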

μ-receptor = μ-receptor (Homo sapiens (Human), UniProt P35372); test: Receptor binding, competitive displacement of [3H]DAMGO; details: 0.25 nM [3H]DAMGO, CHO cell membrane protein, 60 min at 25° C.
Procedure, shortened: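 Ki derived via Cheng-Prusoff from IC50 (log-probit fit) of displacement of 0.25 nM [3H]DAMGO, 12 concentrations, from human μ-receptor in CHO cell membranes. Binding: 50 mM Tris-HCl pH 7.5, 25 °C, 60 min, 10 μM naloxone defining nonspecific, filter-bound radioactivity counted.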

human μ opioid receptor [2] = biological target: T1, human μ opioid receptor; test: Alternate functional activity ([35S]GTPγS binding) assay, SPA beads; assay type: biochemical; details: alternate assay: [35S]GTPγS 0.020 nM, CHO cell membranes with WGA PVT SPA beads
Protocol: The [^35S]GTPγS assay measures the functional properties of a compound by quantifying the level of G-protein activation following agonist binding in studies using stably transfected cells, and is considered to be a measure of the efficacy of a compound. Membranes from CHO (Chinese Hamster Ovary) cells that stably expressed one type of the cloned human opioid receptor human were used in the experiments. The assay buffer consisted of 50 mM Tris-HCl, pH 7.4, 3 mM MgCl2, 0.2 mM EGTA, 5 μM GDP, and 100 mM NaCl. CHO cell membranes stably expressing the human p opioid receptor were pre-incubated with scintillation proximity assay beads from PerkinElmer® (WGA PVT SPA) for 30 minutes, at 8 µg membrane and […] beads in a volume of 0.1 mL per reaction. In a final volume of 0.2 mL, 11 different concentrations of each test compound were incubated with the membrane-SPA bead mixture and a final concentration of 0.020 nM [35S]GTPγS for 1.5 hours with gentle shaking. Reactions were then incubated for 5 hours. Data are the mean EC50 values ±S.E.M. EC50 values (nM) for compounds 12, 16, 19, 20, 149, 151, 152, 157, 160, 161, 164-169, 172, 173, 180-197, and 199-207 are shown in Table 1.

[3] = sc, minimum dose at which maximal reversal of hind paw weight bearing (50±0.5%) was achieved, subcutaneous administration, rat, read-out: MEMD SC CFA

SMILES	EC50 (human μ opioid receptor [1])	Ki (μ-receptor)	EC50 (human μ opioid receptor [2])	also measured
COC1(c2ccnc(C(N)=O)c2)C2CCCC1CN(C[C@H]1CCCO1)C2.Cl (single isomer, unassigned) [Compound 136]	–	–	–	minimal effective dose (Male Sprague-Dawley rats; [3]): 0.3 mg/kg
COC1(c2cccc(C(N)=O)c2)C2CCCC1CN(C[C@@H]1CCOC1)C2.Cl (single isomer, unassigned) [Compound 143]	–	–	–	minimal effective dose (Male Sprague-Dawley rats; [3]): 1 mg/kg
CO[C@@]12CC[C@@]3(C[C@@H]1[C@](C)(O)C(C)(C)C)[C@H]1Cc4ccc(O)c5c4[C@@]3(CCN1CC1CC1)[C@H]2O5 [Buprenorphine, reference compound]	–	–	–	MEMD SC CFA (Male Sprague-Dawley rats; rat, in vivo): 0.1 mg/kg
COC1(c2ccc(C(N)=O)s2)C2CCCC1CN(C)C2.Cl [Compound 48, 5-((1R,5S,9r)-9-methoxy-3-methyl-3-azabicyclo[3.3.1]nonan-9-yl)thiophene-2-carboxamide hydrochloride]	10 to 75 nM	< 1 nM	–	minimal effective dose (Male Sprague-Dawley rats; [3]): 0.1 mg/kg
COC1(c2ccnc(C(N)=O)c2)C2CCCC1CN(C1CCOCC1)C2.Cl [Compound 56, 4-((1R,5S,9r)-9-methoxy-3-(tetrahydro-2H-pyran-4-yl)-3-azabicyclo[3.3.1]nonan-9-yl)picolinamide hydrochloride]	> 75 nM	> 5 nM	–	minimal effective dose (Male Sprague-Dawley rats; [3]): 3 mg/kg
COC1(c2cccc(C(N)=O)c2)C2CCCC1CN(CCN1CCNC1=O)C2.Cl [Compound 63, 3-((1R,5S,9r)-9-methoxy-3-(2-(2-oxoimidazolidin-1-yl)ethyl)-3-azabicyclo[3.3.1]nonan-9-yl)benzamide hydrochloride]	10 to 75 nM	< 1 nM	–	minimal effective dose (Male Sprague-Dawley rats; [3]): > 1 mg/kg
COC1(c2cccc(C(N)=O)c2)C2CCCC1CN(CCN1C(=O)CCC1=O)C2.Cl [Compound 65, 3-((1R,5S,9r)-3-(2-(2,5-dioxopyrrolidin-1-yl)ethyl)-9-methoxy-3-azabicyclo[3.3.1]nonan-9-yl)benzamide hydrochloride]	< 10 nM	< 1 nM	–	minimal effective dose (Male Sprague-Dawley rats; [3]): 0.1 mg/kg
COC1(c2ccnc(C(N)=O)c2)C2CCCC1CN(Cc1cnc[nH]1)C2.Cl [Compound 96, 4-((1R,5S,9r)-3-((1H-imidazol-5-yl)methyl)-9-methoxy-3-azabicyclo[3.3.1]nonan-9-yl)picolinamide hydrochloride]	10 to 75 nM	< 1 nM	–	minimal effective dose (Male Sprague-Dawley rats; [3]): 1 mg/kg
COC1(c2ccnc(C(N)=O)c2)C2CCCC1CN(C[C@@H]1C[C@@H]3C[C@@H]3C1)C2.Cl (stereo partly drawn) [Compound 104, 4-((1R,5S,9R)-3-((1R,3s,5S)-bicyclo[3.1.0]hexan-3-ylmethyl)-9-methoxy-3-azabicyclo[3.3.1]nonan-9-yl)picolinamide hydrochloride]	10 to 75 nM	< 1 nM	–	minimal effective dose (Male Sprague-Dawley rats; po, minimum dose at which maximal reversal of hind paw weight bearing was achieved, dosed orally, rat, read-out: MEMD SC CFA): ≤ 0.1 mg/kg
COCCN1CC2CCCC(C1)C2(OC)c1cccc(C(N)=O)c1.Cl [Compound 128, 3-((1R,5S,9r)-9-methoxy-3-(2-methoxyethyl)-3-azabicyclo[3.3.1]nonan-9-yl)benzamide hydrochloride]	10 to 75 nM	< 1 nM	–	minimal effective dose (Male Sprague-Dawley rats; [3]): 1 mg/kg
COC1(c2cccc(C(N)=O)c2)C2CCCC1CN(CCC1CC1)C2.Cl [Compound 138, 3-((1R,5S,9r)-3-(2-cyclopropylethyl)-9-methoxy-3-azabicyclo[3.3.1]nonan-9-yl)benzamide hydrochloride]	< 10 nM	< 1 nM	–	minimal effective dose (Male Sprague-Dawley rats; [3]): 0.3 mg/kg
COC1(c2ccnc(C(N)=O)c2)C2CCCC1CN([C@H]1C[C@@H](OC)C1)C2 (stereo partly drawn) [Compound 139, 4-((1R,5S,9R)-9-methoxy-3-((1r,3R)-3-methoxycyclobutyl)-3-azabicyclo[3.3.1]nonan-9-yl)picolinamide hydrochloride]	10 to 75 nM	< 1 nM	–	–
COC1(c2ccnc(C(N)=O)c2)C2CCCC1CN(Cc1n[nH]c3ccccc13)C2 [Compound 142, 4-((1R,5S,9r)-3-((1H-indazol-3-yl)methyl)-9-methoxy-3-azabicyclo[3.3.1]nonan-9-yl)picolinamide hydrochloride]	< 10 nM	< 1 nM	–	–
COC1(c2cccc(C(N)=O)c2)C2CCCC1CN(CCS(C)(=O)=O)C2 [Compound 150, 3-((1R,5S,9r)-9-methoxy-3-(2-(methylsulfonyl)ethyl)-3-azabicyclo[3.3.1]nonan-9-yl)benzamide hydrochloride]	> 75 nM	1 to 5 nM	–	–
COC1(c2cccc(C(N)=O)c2)C2CCCC1CN(Cc1n[nH]c3ccccc13)C2 [Compound 154, 3-((1R,5S,9r)-3-((1H-indazol-3-yl)methyl)-9-methoxy-3-azabicyclo[3.3.1]nonan-9-yl)benzamide hydrochloride]	< 10 nM	< 1 nM	–	–
COC1(c2cccc(C(N)=O)c2)C2CCCC1CN(C[C@@H]1C[C@@H]3C[C@@H]3C1)C2 (stereo partly drawn) [Compound 156, 3-((1R,5S,9R)-3-((1R,3r,5S)-bicyclo[3.1.0]hexan-3-ylmethyl)-9-methoxy-3-azabicyclo[3.3.1]nonan-9-yl)benzamide hydrochloride]	< 10 nM	< 1 nM	–	–
COC1(c2cccc(C(N)=O)c2)C2CCCC1CN(CCC(F)F)C2 (centres unmarked) [Compound 159]	< 10 nM	< 1 nM	–	–
COC1(c2ccnc(C(N)=O)c2)C2CCCC1CN(C[C@H]1C[C@H]3CC[C@@H](C1)O3)C2 (some centres unmarked) [Compound 164]	–	–	10 to 75 nM	–
COC1(c2ccnc(C(N)=O)c2)C2CCCC1CN(C[C@@H]1C[C@H]3CC[C@@H](C1)O3)C2 (some centres unmarked) [Compound 165]	–	–	10 to 75 nM	–
COC1(c2cccc(C(N)=O)c2)C2CCCC1CN(C[C@H]1C[C@H]3CC[C@@H](C1)O3)C2 (some centres unmarked) [Compound 166]	–	–	< 10 nM	–
COC1(c2cccc(C(N)=O)c2)C2CCCC1CN(C[C@@H]1C[C@H]3CC[C@@H](C1)O3)C2 (some centres unmarked) [Compound 167]	–	–	< 10 nM	–

SMILES	EC50 (human μ opioid receptor [1])	Ki (μ-receptor)	EC50 (human μ opioid receptor [2])	also measured
COC1(c2ccnc(C(N)=O)c2)C2CCCC1CN(C[C@H]1CCCCO1)C2 (some centres unmarked) [Compound 168]	–	–	10 to 75 nM	–
COC1(c2ccnc(C(N)=O)c2)C2CCCC1CN(C[C@@H]1CCCCO1)C2 (some centres unmarked) [Compound 169]	–	–	10 to 75 nM	–
COC1(c2cc(C(N)=O)ccc2C)C2CCCC1CN(C)C2 (centres unmarked) [Compound 172]	–	–	> 75 nM	–
COC1(c2cc(C(N)=O)ccc2F)C2CCCC1CN(C)C2 (centres unmarked) [Compound 173]	–	–	10 to 75 nM	–
COC1(c2cccc(C(N)=O)c2)C2CCCC1CN(C[C@@H]1[C@@H]3COC[C@@H]31)C2 (some centres unmarked) [Compound 175]	10 to 75 nM	< 1 nM	–	–
COC1(c2cc(F)cc(C(N)=O)c2)C2CCCC1CNC2 (centres unmarked) [Compound 181]	–	–	10 to 75 nM	–
NC(=O)c1cccc(C2(OCC(F)(F)F)C3CCCC2CNC3)c1 (centres unmarked) [Compound 184]	–	–	10 to 75 nM	–
CCOC1(c2cc(Cl)cc(C(N)=O)c2)C2CCCC1CNC2 (centres unmarked) [Compound 185]	–	–	> 75 nM	–
CCOC1(c2cc(C(N)=O)ccc2F)C2CCCC1CNC2 (centres unmarked) [Compound 186]	–	–	10 to 75 nM	–
COC1(c2cccc(C(N)=O)c2)C2CCCC1CN([C@H](C)c1n[nH]c3cnccc13)C2 (some centres unmarked) [Compound 189]	–	–	10 to 75 nM	–
COC1(c2cccc(C(N)=O)c2)C2CCCC1CN([C@@H](C)c1n[nH]c3cnccc13)C2 (some centres unmarked) [Compound 190]	–	–	< 10 nM	–
COC1(c2cccc(C(N)=O)c2)C2CCCC1CN(Cc1n[nH]c3cnccc13)C2 (centres unmarked) [Compound 191]	–	–	10 to 75 nM	–
CCOC1(c2cc(F)cc(C(N)=O)c2)C2CCCC1CNC2 (centres unmarked) [Compound 192]	–	–	10 to 75 nM	–
CCOC1(c2cc(C)cc(C(N)=O)c2)C2CCCC1CNC2 (centres unmarked) [Compound 193]	–	–	> 75 nM	–
COC1(c2cc(C(N)=O)ccc2F)C2CCCC1CN(C)C2 (centres unmarked) [Compound 194]	–	–	10 to 75 nM	–
COC1(c2ccnc(C(N)=O)c2)C2CCCC1CN(C1(C)CCC1)C2 (centres unmarked) [Compound 201]	–	–	10 to 75 nM	–
COC1(c2ccnc(C(N)=O)c2)C2CCCC1CN(C1CC3CCC(C1)O3)C2 (centres unmarked) [Compound 204]	–	–	10 to 75 nM	–
COC1(c2cccc(C(N)=O)c2)C2CCCC1CN(C1CC3CCC(C1)O3)C2 (centres unmarked) [Compound 205]	–	–	< 10 nM	–
COC1(c2ccnc(C(N)=O)c2)C2CCCC1CN([C@H](C)c1cnn[nH]1)C2 (some centres unmarked) [Compound 206]	–	–	> 75 nM	–
CCOC1(c2cccc(C(N)=O)c2O)C2CCCC1CNC2 (centres unmarked) [Compound 207]	–	–	> 75 nM	–
Oc1ccc2c3c1O[C@H]1[C@@H](O)CC[C@@]4(O)[C@@H](C2)N(CC2CCC2)CC[C@]314 [Nalbuphine, reference compound]	–	–	–	minimal effective dose (Male Sprague-Dawley rats; Rattus norvegicus, sc, read-out: MEMD SC CFA (mg/kg)): > 10 mg/kg
